The source of these data is article PMC10892818, “An Antiherpesviral Host-Directed Strategy Based on CDK7 Covalently Binding Drugs: Target-Selective, Picomolar-Dose, Cross-Virus Reactivity” (Pharmaceutics, 2024).

For one experiment, the system named is rKSHV.219-GFP/RFP. Briefly: KSHV-GFP/RFP reporter assay in iSLK.219 cells. In kind it is cell-based, Kaposi’s sarcoma-associated herpesvirus. The source says:
The virus recombinants VZV Oka-GFP and rKSHV.219-GFP/RFP were used for the infection of HFFs (virus stock VZV Oka-GFP applied as a cell-bound inoculum as described before) or were continuously passaged in iSLK.219 carrier cells, respectively (Figure 1). The conditions of the GFP/RFP-based assays were adapted to both the 96 well (Figure 1A,B) and 12 well formats, and details including the assessment of antiviral reference drugs are given (Figure 1C,D).
The virus recombinants VZV Oka-GFP and rKSHV.219-GFP/RFP were used for the infection of HFFs (VZV) or were continuously passaged in iSLK.219 carrier cells (KSHV), respectively, and cell viability was determined by NRA performed with uninfected HFFs or uninduced iSLK.219 cells, respectively. (A,B) Schematic depiction of the assay systems performed in a 96 well plate format. […] For the VZV-GFP system, virus stock VZV Oka-GFP was applied as a cell-bound infectious inoculum. After a 90 min period of inoculum adsorption to the cell surfaces, antiviral compounds were added to the culture media at serial dilutions (DMSO served as a solvent control for drug treatment of infected cells, while mock-infected cells served as a negative control). For the KSHV-GFP/RFP system, iSLK.219 cell lytic replication of KSHV (RFP reporter signal) was induced by the addition of 0.05 or 0.5 µg/mL doxycycline (dox) to the culture media. Cultivated dox-induced iSLK.219 cells were treated with antiviral compounds added at serial dilutions (DMSO served as a positive infection solvent control, while dox-untreated mock cells served as a negative control). HFFs or iSLK.219 cells were harvested at 4 d p.i. or 1 d after treatment, respectively, fixed by a 10 min incubation with 10% formalin, washed with PBS, and used for quantitation of the GFP or RFP reporter signal by PicoMD counting (ImageXpress® Pico device, Molecular Devices LLC, San Jose, CA, USA), with data evaluation using CellReporterXpress® software (version 2.9.3.1183, Molecular Devices LLC) as described earlier in [63]. (C) The antiviral activity of the reference drugs was determined with the VZV-GFP system in the 96 well format. EC50 values refer to measurements in quadruplicate, and the mean values ± SD of two experimental replicates are given. (D) The antiviral activity of the reference drugs was determined with the KSHV-GFP/RFP system in the 96 well format. EC50 values refer to measurements in triplicate, and the mean values ± SD are given for each of the two depicted experimental replicates.
(In a reporter assay the amount or activity of a reporter protein is the signal.)

The subject of another experiment is HCMV UL97-C480F. In words: HCMV reporter-based antiviral assay, drug-resistant mutant. To be noted: Human betaherpesvirus 5, read-out: Measured EC50 ref. drugs UL97-C480F. The class given is cell-based, human cytomegalovirus. The procedure: (§1) For the infection experiments, stocks of the following recombinant, reporter protein-expressing viruses (GFP or YFP (i.e., green or yellow fluorescent protein, respectively)) were propagated (in permissive cells), determined in their infectious titers performing the respective reporter assays, stored by aliquots at −80 °C, and used for the assessment of antiviral drug activities: human cytomegalovirus HCMV AD169-GFP (HFFs); murine cytomegalovirus MCMV C3X-GFP (MEFs); guinea pig cytomegalovirus GPCMV v403-GFP (GPEFs); human herpesvirus type 6A HHV-6A U1102-GFP (J-Jhan); herpes simplex virus type 1 HSV-1 166v VP22-GFP (HFFs); varicella zoster virus VZV Oka-GFP (HFFs); Epstein-Barr virus EBV Akata-GFP (Akata-BX1-GFP carrier cells; kindly provided by Lindsey Hutt-Fletcher and Rona Scott, Dept. Microbiol. Immunol., LSUHSC Univ., Shreveport, LA, USA); and Kaposi’s sarcoma-associated herpesvirus KSHV rKSHV.219-GFP/RFP (in iSLK.219 carrier cells).
(§2) For HCMV AD169-GFP infection, the replication assay was based on a seeding of 225,000 HFFs or 13,500 HFFs in 12 well or 96 well plates, respectively, which were then inoculated with HCMV AD169-GFP [55] at an MOI of 0.25 GFP-FU/mL/7 d for a 90 min period of inoculum–cell adsorption, followed by a medium refreshment including the immediate addition of antiviral compounds. At 7 d p.i., the infected HFFs were either directly fixed with 10% formalin for 20 min at 4 °C (when used for infection in the 96 well format) or lysed and transferred to 96 well plates (when used for infection in the 12 well format) so that the reporter of viral replication could be quantified by GFP fluorometry using a Perkin Elmer Victor X4 Multimode Plate Reader (Perkin Elmer, Waltham, MA, USA).
(§3) Due to the fact that the HCMV-encoded protein kinase pUL97 represents a functional and structural ortholog of the host CDKs (vCDK/pUL97), the viral mutants of ORF-UL97 were assessed for sensitivity against CDK7 inhibitors.

The next experiment concerns HCMV UL97-C592G. The description is as above. In kind it is cell-based, human cytomegalovirus. To be noted: Human betaherpesvirus 5, read-out: Measured EC50 ref. drugs UL97-C592G. As for the experimental part: as §1, §2, §3
Another experiment concerns HCMV UL97-C603W. The description is as above. To be noted: Human betaherpesvirus 5, read-out: Measured EC50 ref. drugs UL97-C603W. In kind it is cell-based, human cytomegalovirus. The procedure:
as §1, §2, §3

The test system of a further experiment is HCMV UL97-F342S. Described as above. In kind it is cell-based, human cytomegalovirus. To be noted: Human betaherpesvirus 5, read-out: Measured EC50 ref. drugs UL97-F342S. The procedure:
as §1, §2, §3

The test system of the next experiment is HCMV UL97-H411Y. Described as above. The class given is cell-based, human cytomegalovirus. To be noted: Human betaherpesvirus 5, read-out: Measured EC50 ref. drugs UL97-H411Y. As for the experimental part:
as §1, §2, §3

Another experiment has as its system HCMV UL97-H469V. Described as above. The class given is cell-based, human cytomegalovirus. To be noted: Human betaherpesvirus 5, read-out: Measured EC50 ref. drugs UL97-H469V. As for the experimental part: as §1, §2, §3
A further experiment has as its system HCMV UL97-H520Q. The description is as above. To be noted: Human betaherpesvirus 5, read-out: Measured EC50 ref. drugs UL97-H520Q. The class given is cell-based, human cytomegalovirus. The procedure:
as §1, §2, §3

Another experiment has as its system HCMV UL97-L397R. The description is as above. The class given is cell-based, human cytomegalovirus. To be noted: Human betaherpesvirus 5, read-out: Measured EC50 ref. drugs UL97-L397R. The procedure: as §1, §2, §3
A further experiment concerns HCMV UL97-M460I. The experiment is described as above. To be noted: Human betaherpesvirus 5, AD169, read-out: Measured EC50 ref. drugs UL97-M460I. In kind it is cell-based, human cytomegalovirus. The procedure:
as §1, §2, §3

The test system of another experiment is HCMV UL97-T409M. The description is as above. The class given is cell-based, human cytomegalovirus. To be noted: Human betaherpesvirus 5, read-out: Measured EC50 ref. drugs UL97-T409M. As for the experimental part:
as §1, §2, §3

Like-named read-outs stand apart in the source and are kept apart here.

On to `Nc1nc(O)c2ncn(COC(CO)CO)c2n1` [GCV, ganciclovir], for which the EC50 in the experiment with rKSHV.219-GFP/RFP (Human gammaherpesvirus 8, read-out: KSHV EC50, iSLK.219, 96 well, induced with 0.05 μg/mL dox) is 200 ± 100 nM; in the experiment on rKSHV.219-GFP/RFP (Human gammaherpesvirus 8, read-out: KSHV EC50, iSLK.219, 96 well, induced with 0.5 μg/mL dox), 200 nM; in the experiment on HCMV UL97-C480F it was 10500 ± 2200 nM; in the experiment with HCMV UL97-C592G, 4670 ± 1100 nM; in the experiment on HCMV UL97-C603W, 9870 ± 1000 nM; in the experiment on HCMV UL97-F342S, 17100 ± 1500 nM. In addition, the EC50 is 3760 ± 600 nM in the experiment with HCMV UL97-H411Y; 1220 ± 200 nM with HCMV UL97-H469V; 10700 ± 700 nM in the experiment on HCMV UL97-H520Q; 2240 ± 500 nM with HCMV UL97-L397R; 9240 ± 3300 nM in the experiment with HCMV UL97-M460I; 1980 ± 200 nM in the experiment with HCMV UL97-T409M.

With `Nc1ccn(C[C@@H](CO)OCP(=O)(O)O)c(=O)n1` [CDV, cidofovir], the EC50 in the experiment with HCMV UL97-C480F is 400 nM; with HCMV UL97-C592G, 400 nM; in the experiment on HCMV UL97-C603W, 410 nM; in the experiment with HCMV UL97-F342S it was 190 nM; in the experiment with HCMV UL97-H411Y, 420 nM; in the experiment on HCMV UL97-H469V, 180 nM. Also, the EC50 in the experiment on HCMV UL97-H520Q is 100 nM; in the experiment on HCMV UL97-L397R, 340 nM; in the experiment on HCMV UL97-M460I, 70 nM; with HCMV UL97-T409M, 260 nM.
